What was measured:
[1] = test system: human liver microsomes (HLMs); assay: Glucuronidation kinetics of diosmetin and chrysoeriol by HLMs; assay type: in vitro ADME; conditions: for Kinetic profile of glucuronide formation: Eadie—Hofstee plots; for Km / Vmax: formation of the named glucuronide from diosmetin or chrysoeriol
Method: (§1) All metabolism studies in vitro were approved by the First Hospital Affiliated to Shihezi University Research Ethics Committee. The glucuronidation assay was performed as described in previous publications. […] The incubation volumes were 120 μL, and the total organic solvent content was 1%. […] The reactions were initiated by adding UDPGA (3.5 mM) at 37°C and then allowed to stand for 30 min in a water bath. These reactions were terminated by adding 60 μL ice-cold acetonitrile containing the IS (25 nM tilianin). […] All experiments were performed in triplicate. The enzyme kinetic parameters were obtained by fitting kinetic models to the experimental data using GraphPad Prism version 5.04 for Windows (GraphPad Software Inc., San Diego, CA, USA). The best model was selected based on visual inspection of the Eadie-Hofstee plots, the calculated r^2 values, and corrected Akaike’s information criterion. The HLMs or human expressed UGT enzymes were employed for kinetic studies at concentrations ranging from 0.0021 mg/mL to 0.0053 mg/mL. The rates of the glucuronidation were fitted to the following equations: V = Cmetabolite/t×Cprotein Where V (nmol/mg/min) is the rates of the glucuronidation, Cmetabolite (μM) and Cprotein (mg/mL) respectively are the concentration of the metabolite and the reaction protein, t (min) is the reaction time. Model selection was based on visual inspection of Eadie—Hofstee plots and it was reported in our previous study. In brief, if the Eadie—Hofstee plot was linear, formation rates (V) of glucuronides at different substrate concentrations (C) were fitted to the standard Eq (1): V = Vmax×C/Km+C (1) where Km is the Michaelis-Menten constant and Vmax is the maximum rate of glucuronidation. The intrinsic clearance (CLint) was derived by Vmax/Km. […] The intrinsic clearance (CLint) was derived by Vmax1/Km1.

[2] = as above; assay type: in vitro ADME, human; conditions: human, liver microsomes, pH 7.4, Vmax/Km, formation of the named glucuronide
Method: as §1

[3] = test system: HeLa—UGT1A9 cells; assay: Glucuronide excretion at different substrate concentrations in HeLa—UGT1A9 cells; assay type: cell-based; conditions: for substrate concentration at which the excretion rate reached a peak: diosmetin or chrysoeriol 1.25-40 μM
Method: (§2) The excretion rates, glucuronides intracellular, Glucuronides excretion, the clearance of efflux transporter (CL) and the fraction of the metabolized dose (fmet) experiments were calculated as described in detail previously.

[4] = molecular target: T1, UGT1A1 (Homo sapiens, UniProt P22309); assay: Glucuronidation kinetics by human expressed UGT1A1; assay type: in vitro ADME
T1 construct: purchased BD Biosciences (Woburn, MA, USA)
T1 sequence (P22309 26-533): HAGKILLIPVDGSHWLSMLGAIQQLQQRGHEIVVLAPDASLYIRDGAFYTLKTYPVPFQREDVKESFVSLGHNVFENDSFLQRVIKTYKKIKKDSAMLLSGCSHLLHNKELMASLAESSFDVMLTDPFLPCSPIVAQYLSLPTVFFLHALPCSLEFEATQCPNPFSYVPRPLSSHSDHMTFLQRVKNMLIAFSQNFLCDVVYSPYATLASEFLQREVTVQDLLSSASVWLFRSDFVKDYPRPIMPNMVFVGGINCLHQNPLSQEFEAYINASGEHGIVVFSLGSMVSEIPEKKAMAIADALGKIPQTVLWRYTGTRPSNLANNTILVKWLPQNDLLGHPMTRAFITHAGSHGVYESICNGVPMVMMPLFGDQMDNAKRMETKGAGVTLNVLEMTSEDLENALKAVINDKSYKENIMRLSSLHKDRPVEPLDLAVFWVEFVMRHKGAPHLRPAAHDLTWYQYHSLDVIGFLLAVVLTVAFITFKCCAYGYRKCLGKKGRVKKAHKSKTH
Method: as §1

[5] = molecular target: T2, BCRP (Homo sapiens, UniProt Q9UNQ0); assay: Effect of BCRP inhibitor Ko143 on glucuronide excretion in HeLa—UGT1A9 cells; assay type: cell-based
T2 construct: endogenous in cells; host or cells: HeLa cells stably transfected with UGT1A9 (from Dr. Ming Hu, University of Houston)
T2 sequence (Q9UNQ0 1-655): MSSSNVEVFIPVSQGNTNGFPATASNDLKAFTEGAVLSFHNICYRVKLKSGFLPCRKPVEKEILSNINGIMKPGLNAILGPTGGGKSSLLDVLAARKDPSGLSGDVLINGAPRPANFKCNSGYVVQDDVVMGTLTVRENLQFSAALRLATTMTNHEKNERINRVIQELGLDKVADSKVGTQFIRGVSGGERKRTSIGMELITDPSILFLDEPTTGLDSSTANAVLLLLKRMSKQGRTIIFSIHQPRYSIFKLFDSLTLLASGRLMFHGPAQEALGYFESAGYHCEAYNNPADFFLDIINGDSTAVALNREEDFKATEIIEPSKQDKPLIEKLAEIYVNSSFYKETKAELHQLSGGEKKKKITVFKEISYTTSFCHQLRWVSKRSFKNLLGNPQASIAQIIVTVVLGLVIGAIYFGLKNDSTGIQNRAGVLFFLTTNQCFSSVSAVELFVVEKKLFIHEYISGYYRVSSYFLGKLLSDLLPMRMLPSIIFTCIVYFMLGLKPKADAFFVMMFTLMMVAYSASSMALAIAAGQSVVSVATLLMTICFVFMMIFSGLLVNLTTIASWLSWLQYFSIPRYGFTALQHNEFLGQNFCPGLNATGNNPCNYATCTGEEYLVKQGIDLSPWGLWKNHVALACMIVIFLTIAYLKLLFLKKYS
Method: as §2

[6] = molecular target: T3, UGT1A9 (Homo sapiens, UniProt O60656); assay: Glucuronidation by human expressed UGT1A9 (screening and kinetics); assay type: in vitro ADME; conditions: for Kinetic profile of glucuronide formation: Eadie—Hofstee plots; for microsomal CLint: human, expressed (recombinant) human UGT1A9, pH 7.4, Vmax/Km; for Vmax: substrate diosmetin (Dio-3′-G) or chrysoeriol (Chr-7-G)
T3 construct: purchased BD Biosciences (Woburn, MA, USA)
T3 sequence (O60656 26-530): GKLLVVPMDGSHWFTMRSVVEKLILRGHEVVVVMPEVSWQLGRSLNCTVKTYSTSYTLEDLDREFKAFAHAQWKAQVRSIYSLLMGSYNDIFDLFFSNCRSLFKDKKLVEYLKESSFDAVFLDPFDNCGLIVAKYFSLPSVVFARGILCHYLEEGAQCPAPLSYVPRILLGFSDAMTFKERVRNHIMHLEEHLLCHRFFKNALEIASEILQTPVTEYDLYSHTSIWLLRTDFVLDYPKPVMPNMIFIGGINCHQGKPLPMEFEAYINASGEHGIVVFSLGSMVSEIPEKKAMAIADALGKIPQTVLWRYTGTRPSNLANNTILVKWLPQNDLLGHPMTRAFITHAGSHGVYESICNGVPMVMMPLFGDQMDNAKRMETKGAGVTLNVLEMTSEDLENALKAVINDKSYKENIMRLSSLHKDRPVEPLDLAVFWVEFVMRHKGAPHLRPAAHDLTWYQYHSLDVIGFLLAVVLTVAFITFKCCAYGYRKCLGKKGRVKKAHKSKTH
Method: as §1, with “Vmax1/Km1. The method of this study as described in detail previously. […] The incubation conditions were as follows: protein concentration: 0.0053 mg/mL; temperature of water: 37°C; shaker speed: 50 rpm; reaction time: 30 min. After incubation, all samples were pretreated as described above and analyzed by UHPLC—MS/MS.” for “Vmax1/Km1.”

[7] = molecular target: T4, UGT1A6 (Homo sapiens, UniProt P19224); assay: Glucuronidation by human expressed UGT1A6 (screening and kinetics); assay type: in vitro ADME
T4 construct: purchased BD Biosciences (Woburn, MA, USA)
T4 sequence (P19224 27-532): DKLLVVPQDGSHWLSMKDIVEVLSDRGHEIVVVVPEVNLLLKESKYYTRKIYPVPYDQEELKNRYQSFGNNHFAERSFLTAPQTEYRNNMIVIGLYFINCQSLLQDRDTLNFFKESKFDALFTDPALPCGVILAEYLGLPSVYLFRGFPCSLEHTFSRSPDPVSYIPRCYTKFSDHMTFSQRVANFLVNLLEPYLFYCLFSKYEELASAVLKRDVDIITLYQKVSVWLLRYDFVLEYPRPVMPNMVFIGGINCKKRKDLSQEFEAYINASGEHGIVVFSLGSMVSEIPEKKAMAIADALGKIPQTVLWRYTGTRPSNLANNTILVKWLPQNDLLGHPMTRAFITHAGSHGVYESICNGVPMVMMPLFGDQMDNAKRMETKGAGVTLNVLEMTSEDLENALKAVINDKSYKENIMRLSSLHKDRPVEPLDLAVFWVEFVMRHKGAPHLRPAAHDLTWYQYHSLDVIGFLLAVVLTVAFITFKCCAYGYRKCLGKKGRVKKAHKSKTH
Method: as §1, with “Vmax1/Km1. The method of this study as described in detail previously. […] After incubation, all samples were pretreated as described above and analyzed by UHPLC—MS/MS.” for “Vmax1/Km1.”

[8] = 5 μM Ko143, 2.5 μM diosmetin or chrysoeriol
[9] = 10 μM Ko143, 2.5 μM diosmetin or chrysoeriol

COc1cc(-c2cc(=O)c3c(O)cc(O)cc3o2)ccc1O[C@@H]1O[C@H](C(=O)O)[C@@H](O)[C@H](O)[C@H]1O [Chr-4′-G, chrysoeriol-4′-O-glucuronide]
Kinetic profile of glucuronide formation [1]: substrate inhibition profiles
Km [1]: 0.15 ± 0.03 µM
Vmax [1]: 0.20 ± 0.01 nmol/mg/min
microsomal CLint [2]: 1270 µL/min/mg
substrate concentration at which fmet reached a peak ([3]; chrysoeriol 1.25-40 μM): 2.5 µM
substrate concentration at which the excretion rate reached a peak [3]: 2.5 µM
Kinetic profile of glucuronide formation ([4]; Eadie—Hofstee plots): substrate inhibition kinetic characteristics
microsomal CLint ([4]; human, expressed (recombinant) human UGT1A1, pH 7.4, Vmax/Km): 2260 µL/min/mg
Vmax ([4]; substrate chrysoeriol): 0.63 ± 0.06 nmol/mg/min
increase of total intracellular amount of glucuronide compared with the control [5, 8]: 1.3 fold
increase of total intracellular amount of glucuronide compared with the control [5, 9]: 1.8 fold

COc1cc(-c2cc(=O)c3c(O)cc(O[C@@H]4O[C@H](C(=O)O)[C@@H](O)[C@H](O)[C@H]4O)cc3o2)ccc1O [Chr-7-G, chrysoeriol-7-O-glucuronide]
Kinetic profile of glucuronide formation [1]: classic Michaelis—Menten kinetics
Km [1]: 3.83 ± 0.55 µM
Vmax [1]: 0.15 ± 0.01 nmol/mg/min
microsomal CLint [2]: 40 µL/min/mg
substrate concentration at which the excretion rate reached a peak [3]: 2.5 µM
Kinetic profile of glucuronide formation [6]: classic Michaelis-Menten kinetic characteristics
microsomal CLint [6]: 480 µL/min/mg
Vmax [6]: 0.12 ± 0.01 nmol/mg/min
increase of total intracellular amount of glucuronide compared with the control [5, 8]: 1.3 fold
increase of total intracellular amount of glucuronide compared with the control [5, 9]: 1.7 fold

COc1ccc(-c2cc(=O)c3c(O)cc(O)cc3o2)cc1O[C@@H]1O[C@H](C(=O)O)[C@@H](O)[C@H](O)[C@H]1O [Dio-3′-G, diosmetin-3′-O-glucuronide]
Kinetic profile of glucuronide formation [1]: classic Michaelis—Menten kinetics
Km [1]: 0.19 ± 0.02 µM
Vmax [1]: 1.16 ± 0.03 nmol/mg/min
microsomal CLint [2]: 6250 µL/min/mg
substrate concentration at which the excretion rate reached a peak [3]: 2.5 µM
Kinetic profile of glucuronide formation [6]: classic Michaelis-Menten kinetic characteristics
microsomal CLint [6]: 9520 µL/min/mg
Vmax [6]: 4.27 ± 0.13 nmol/mg/min
increase of total intracellular amount of glucuronide compared with the control [5, 8]: 1.3 fold
increase of total intracellular amount of glucuronide compared with the control [5, 9]: 1.8 fold

COc1ccc(-c2cc(=O)c3c(O)cc(O[C@@H]4O[C@H](C(=O)O)[C@@H](O)[C@H](O)[C@H]4O)cc3o2)cc1O [Dio-7-G, Diosmetin-7-O-glucuronide]
Kinetic profile of glucuronide formation [1]: substrate inhibition profiles
Km [1]: 4.66 ± 0.72 µM
Vmax [1]: 0.61 ± 0.05 nmol/mg/min
microsomal CLint [2]: 130 µL/min/mg
substrate concentration at which the excretion rate reached a peak [3]: 10 µM
increase of total intracellular amount of glucuronide compared with the control [5, 8]: 1.1 fold
increase of total intracellular amount of glucuronide compared with the control [5, 9]: 1.5 fold
Kinetic profile of glucuronide formation ([7]; Eadie—Hofstee plots): substrate inhibition kinetic characteristics
microsomal CLint ([7]; human, expressed (recombinant) human UGT1A6, pH 7.4, Vmax/Km): 300 µL/min/mg
Vmax ([7]; substrate diosmetin): 0.92 ± 0.06 nmol/mg/min

From PMC5104480 (PLoS ONE, 2016)
